Measured values taken from US8765695B2, “Use of ginsenoside RG1, its metabolites ginsenoside RH1 and/or PPT” (priority 2007, dated 2014).
Marks after values point to notes of the source that are not given here.

What was measured:
male mice = assay: Test of sexual ethology: bestriding time and mating frequency of male mice with estral female mice; assay type: in vivo, Kunming mice
Procedure: Kunming male mice (age 10 weeks, weight body 32-36 g), Kunming female mice (age 10 weeks, weight body 30-34 g), as purchased from Laboratory Animal Center of Chinese Academy of Medical Sciences (with the number of certificate SCXK (Jing) 2005-0004), were placed in a clean grade animal house alternately in light and in darkness (12 h:12 h), while taking water and food freely. The test started after the mice had adapted to the environment in the animal house for 5 days. During the period of adapting to the environment, male mice and female mice were isolated from each other.
In order to correctly reflect the change of male mice in sexual function, we prepared estral female mice by ectomizing their ovaries and inducing them by application of external hormone. After anesthetized with chloral hydrate, female mice were subjected to the steps of ectomizing bilateral ovaries by dorsal approach, ligating uterine tube residue end, and suturing skin, followed by recuperating for one week. The induction by application of hormone was conducted by reference to the literature (Masayoshi Nomura, et al, Physiology & Behavior 91 (2007) 223-228), comprising the steps of subcutaneously injecting estradiol benzoate (30 μg per mouse, is) at 48 h prior to use, and subcutaneously injecting progesterone (500 μg per mouse, is) at 4 h prior to use, to thereby obtain estral female mice.
Estral female mice were put in a ratio of 2:1 to male mice inside a mating box in which male mice were placed. They were trained for consecutive 5 days, 12 min each day. When the mating reaction of male mice became stable, the mice were grouped with the consideration that the bestriding time in each group of mice was substantially the same, while discarding the mice that had relatively weak reaction and no reaction.
In darkness, ethological test was carried out in the rearing cage of male mice. Estral female mice and male mice were kept in a ratio of 2:1 inside the same box for 12 min, during which period the bestriding time and mating frequency of the male mice were observed.
All of the values were expressed by using mean value and standard error (M±SEM), the analytic method used was one-way analysis of variance (ANOVA), and the statistic results were expressed by double star method, i.e., *<0.05, **<0.01.

testosterone in serum = assay: Content of testosterone in serum of male mice by radioimmune assay after 20 days of oral administration; assay type: in vivo
Procedure: After oral administration of ginsenoside Rg1 for 20 days, the content of testosterone in serum of male mice was tested by radioimmune assay.

corpus cavernosum = assay: NO release and cGMP content in corpus cavernosum of Newland white rabbit; assay type: in vivo
Procedure: 1.2.1 Influence of Ginsenoside Rg1 on No Release and cGMP Content in Corpus Cavernosum of Newland White Rabbit, as Shown in Table 4
Ginsenoside Rg1 (10 mg/kg) could markedly increase cGMP content in corpus cavernosum as compared with the control group. *P<0.05 vs the control group.

PDE5 = PDE5 (Homo sapiens, UniProt O76074); assay: Inhibition effect on PDE5 (cGMP degradation, radioimmune autograph technique); assay type: biochemical
healthy men aged 30-50 = assay: Improving sexual function of men, study in volunteers; assay type: in vivo, human; conditions: 100-200 mg/d
Text: The effect of ginsenoside Rg1 on improving sexual function of men had been studied in a few of volunteers (healthy men aged 30-50).

[1] = test system: sperms in tail of epididymis; assay: Gossypol aspermatogenesis model: quality of sperms from tail of epididymis by CASA; assay type: in vivo,  male mice; conditions: 14th day
NO in testis tissue = assay: NO content in testis tissue of mice, gossypol model (NO kit); assay type: in vivo
Text: There was no difference between low-dose group and high-dose group. […] The values were expressed as mean value±SD. **P<0.01 vs. model group, n=10.

T, FSH and LH in serum = assay: Hormones (T, FSH, LH) content in serum of mice, gossypol model, radioimmune assay; assay type: in vivo
Procedure: The test was conducted by radioimmune assay, with the use of a kit as purchased from China North Institute of Biological Technology.

sperms of senile mice = assay: Quality of sperms in senile mice by CASA; assay type: in vivo, Kunming mice; conditions: senile mice aged 12 months, 5 mg/kg oral once every day, two weeks
Procedure: In the test, Kunming mice aged 12 months were used. Ginsenoside Rg1 was orally administered at a dose of 5 mg/kg, once every day, for two weeks.
However, the two groups had no difference in terms of the percentage of motility sperms and the percentage of A+B grade. […] The values were expressed as mean value±SD. **P<0.01 vs. the group of senile mice, n=4.

[2] = test system: sperms of cold stress mice; assay: Quality of sperms in mice in cold stress model by CASA; assay type: in vivo, Kunming mice; conditions: 14 days
Procedure: In the test, Kunming mice were used to establish a stress model. The mice were placed in an environment of 4° C. for 8 hours every day, each being kept in a single cage, with fasting and without water, for 14 days, to thereby establish a cold stress model. Ginsenoside Rg1 was administered at two different doses, i.e., 5 mg/kg and 10 mg/kg. Every day, the mice orally took the drug 1 hour before exposure in the cold environment.

## CC(C)=CCC[C@](C)(O[C@@H]1O[C@H](CO)[C@@H](O)[C@H](O)[C@H]1O)[C@H]1CC[C@]2(C)[C@@H]1[C@H](O)C[C@@H]1[C@@]3(C)CC[C@H](O)C(C)(C)[C@@H]3[C@@H](O[C@@H]3O[C@H](CO)[C@@H](O)[C@H](O)[C@H]3O)C[C@]12C [Rg1, ginsenoside Rg1]
Male mice; 5 mg/kg, 1st day
  bestriding time of mice: 3.1 ± 4.3 min
Male mice; 5 mg/kg, 1st day, 12 min observation
  mating frequency of mice: 15.4 ± 6.4
Male mice; 5 mg/kg, 4th day
  bestriding time of mice: 2.9 ± 3.4 min
  mating frequency of mice: 18.7 ± 4.2
Male mice; 5 mg/kg, 8th day
  bestriding time of mice: 3.9 ± 3.1 min
  mating frequency of mice: 25.6 ± 5.2
Male mice; 5 mg/kg, 12th day
  bestriding time of mice: 7.6 ± 4.1 min
  mating frequency of mice: 32.8 ± 6.6
Male mice; 5 mg/kg, 14th day
  bestriding time of mice: 6.9 ± 3.5 min
  mating frequency of mice: 29.3 ± 7.0
Male mice; 5 mg/kg, 16th day
  bestriding time of mice: 8.6 ± 2.8 min
  mating frequency of mice: 42.1 ± 10.1
Male mice; 5 mg/kg, 18th day
  bestriding time of mice: 9.4 ± 3.7* min
  mating frequency of mice: 43.7 ± 8.7*
Male mice; 5 mg/kg, 20th day
  bestriding time of mice: 9.5 ± 3.4* min
  mating frequency of mice: 43.3 ± 7.8*
Male mice; 10 mg/kg, 1st day
  bestriding time of mice: 3.3 ± 2.3 min
Male mice; 10 mg/kg, 1st day, 12 min observation
  mating frequency of mice: 13.8 ± 3.4
Male mice; 10 mg/kg, 4th day
  bestriding time of mice: 3.5 ± 3.1 min
  mating frequency of mice: 20.1 ± 4.8
Male mice; 10 mg/kg, 8th day
  bestriding time of mice: 4.2 ± 3.6 min
  mating frequency of mice: 28.3 ± 5.6
Male mice; 10 mg/kg, 12th day
  bestriding time of mice: 8.6 ± 4.3 min
  mating frequency of mice: 25.3 ± 7.1
Male mice; 10 mg/kg, 14th day
  bestriding time of mice: 7.9 ± 3.7 min
  mating frequency of mice: 33.3 ± 6.6
Male mice; 10 mg/kg, 16th day
  bestriding time of mice: 9.2 ± 3.6 min
  mating frequency of mice: 37.9 ± 12.7
Male mice; 10 mg/kg, 18th day
  bestriding time of mice: 9.3 ± 3.6* min
  mating frequency of mice: 45.1 ± 10.8*
Male mice; 10 mg/kg, 20th day
  bestriding time of mice: 9.8 ± 3.8* min
  mating frequency of mice: 44.2 ± 9.4*
Testosterone in serum; 2.5 mg/kg oral
  content of testosterone in serum of mice: 5.11 pmol/mL
Testosterone in serum; 5.0 mg/kg oral
  content of testosterone in serum of mice: 5.18 pmol/mL
Testosterone in serum; 10.0 mg/kg oral
  content of testosterone in serum of mice: 7.90* pmol · ml^−1
Corpus cavernosum; 2.5 mg/kg
  NO release in corpus cavernosum: 27.97 ± 6.90 μmol/g protein
  cGMP content in corpus cavernosum: 87.40 ± 42.86 pmol/g
Corpus cavernosum; 5.0 mg/kg
  NO release in corpus cavernosum: 28.43 ± 6.04* μmol/g protein
  cGMP content in corpus cavernosum: 98.10 ± 48.40 pmol/g
Corpus cavernosum; 10.0 mg/kg
  NO release in corpus cavernosum: 30.35 ± 6.70* μmol/g protein
  cGMP content in corpus cavernosum: 102.73 ± 50.80* pmol/g
PDE5
  IC50: 4.34 nM
PDE5; inhibitor 2.5 nmol/l, read-out: Inhibition rate on PDE5
  inhibition at 0.0025 µM: 46.7%
PDE5; inhibitor 5.0 nmol/l, read-out: Inhibition rate on PDE5
  inhibition at 0.005 µM: 40%
PDE5; inhibitor 10.0 nmol/l, read-out: Inhibition rate on PDE5
  inhibition at 0.01 µM: 63.4%
PDE5; inhibitor 40.0 nmol/l, read-out: Inhibition rate on PDE5
  inhibition at 0.04 µM: 100%
PDE5; inhibitor 80.0 nmol/l, read-out: Inhibition rate on PDE5
  inhibition at 0.08 µM: 100%
Healthy men aged 30-50
  side effects in volunteers: except for dry mouth, no significant side effects occurred
[1]; 5 mg/kg every day + gossypol 50 mg/kg every other day
  Number of sperms: 170 ± 36**^# 10^6 · ml−1
[1]; 5 mg/kg every day + gossypol
  Motility of sperms (A + B): 28 ± 6%
  Viability rate of sperms: 50 ± 10 %
[1]; 10 mg/kg every day + gossypol 50 mg/kg every other day
  Number of sperms: 225 ± 36**^## 10^6 · ml−1
[1]; 10 mg/kg every day + gossypol
  Motility of sperms (A + B): 45 ± 8 %
  Viability rate of sperms: 61 ± 9 %
NO in testis tissue; 5 mg/kg
  NO concentration in testis tissue: 16 ± 9 μmol/g protein
NO in testis tissue; 10 mg/kg
  NO concentration in testis tissue: 10 ± 7** μmol/g protein
T, FSH and LH in serum; 5 mg/kg
  FSH in serum: 5.7 ± 2.0 ng/mL
  LH in serum: 2.9 ± 1.2 ng/mL
  T in serum: 0.8 ± 0.3 ng/mL
T, FSH and LH in serum; 10 mg/kg
  FSH in serum: 4.3 ± 1.9 ng/mL
  LH in serum: 2.1 ± 0.8 ng/mL
  T in serum: 1.0 ± 0.5 ng/mL
Sperms of senile mice
  A + B grade: 18.27 ± 8.37%
  Motility sperms: 40 ± 6.56%
  Sperm count: 133.23 ± 15.99** ×10^6
[2]; 5 mg/kg oral
  A + B grade: 39.26 ± 8.96 %
  Motility sperm: 54.47 ± 8.14 %
  Sperm count: 438.70 ± 94.19 ×10^6
[2]; 10 mg/kg oral
  A + B grade: 32.89 ± 13.42%
  Motility sperm: 44.97 ± 12.07%
  Sperm count: 377.17 ± 42.93 ×10^6
